PubChem BioAssay AID1918942 (Molecular Pharmacology Branch, DTP, NCI, 2023)

System: 743489-274-T-PDC complex spheroid viability
Experiment: Anticancer human tumor 743489-274-T-PDC patient-derived renal cell carcinoma cell line growth inhibition
Details: for IC50: curve of first compound; for viability, T/C: stronger effect = lower value
Outline: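 Multicellular complex spheroids of tumor cells with human endothelial cells (HUVEC) and mesenchymal stem cells; the LSD1 inhibitor iadademstat was combined with standard-of-care or investigational agents. Top concentration at or near clinical Cmax, half-log dilutions; final DMSO ≤0.25%.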

[1] = second compound 0.1 µM, first compound 0.000316 µM
[2] = second compound 0.1 µM, first compound 0.001 µM
[3] = second compound 0.1 µM, first compound 0.00316 µM
[4] = second compound 0.1 µM, first compound 0.01 µM
[5] = second compound 0.1 µM, first compound 0.0316 µM
[6] = second compound 0.1 µM, first compound 0.1 µM
[7] = second compound 0.316 µM, first compound 0.000316 µM
[8] = second compound 0.316 µM, first compound 0.001 µM
[9] = second compound 0.316 µM, first compound 0.00316 µM
[10] = second compound 0.316 µM, first compound 0.01 µM
[11] = second compound 0.316 µM, first compound 0.0316 µM
[12] = second compound 0.316 µM, first compound 0.1 µM
[13] = second compound 1 µM, first compound 0.000316 µM
[14] = second compound 1 µM, first compound 0.001 µM
[15] = second compound 1 µM, first compound 0.00316 µM
[16] = second compound 1 µM, first compound 0.01 µM
[17] = second compound 1 µM, first compound 0.0316 µM
[18] = second compound 1 µM, first compound 0.1 µM
[19] = second compound 3.16 µM, first compound 0.000316 µM
[20] = second compound 3.16 µM, first compound 0.001 µM
[21] = second compound 3.16 µM, first compound 0.00316 µM
[22] = second compound 3.16 µM, first compound 0.01 µM
[23] = second compound 3.16 µM, first compound 0.0316 µM
[24] = second compound 3.16 µM, first compound 0.1 µM
[25] = second compound 10 µM, first compound 0.000316 µM
[26] = second compound 10 µM, first compound 0.001 µM
[27] = second compound 10 µM, first compound 0.00316 µM
[28] = second compound 10 µM, first compound 0.01 µM
[29] = second compound 10 µM, first compound 0.0316 µM
[30] = second compound 10 µM, first compound 0.1 µM
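Also: spheroids exposed to compounds for 7 days before readout.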
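For viability, T/C in this document: 100% = DMSO vehicle control wells.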

Structure (SMILES) | IC50 (second compound 0.1 µM) [nM] | IC50 (second compound 0.316 µM) [nM] | IC50 (second compound 1 µM) [nM] | IC50 (second compound 3.16 µM) [nM] | IC50 (second compound 10 µM) [nM] | viability, T/C [3] [%] | viability, T/C [4] [%] | viability, T/C [5] [%] | viability, T/C [6] [%] | viability, T/C [9] [%] | viability, T/C [10] [%] | viability, T/C [11] [%] | viability, T/C [12] [%] | viability, T/C [15] [%] | viability, T/C [16] [%] | viability, T/C [17] [%] | viability, T/C [18] [%] | viability, T/C [21] [%] | viability, T/C [22] [%] | viability, T/C [23] [%] | also measured
CC(C)CC(NC(=O)C(Cc1ccccc1)NC(=O)c1cnccn1)B(O)O (stereo not given) + NC1CC1c1ccc(-c2cccc(O)c2)cc1 | 7.45 | 7.39 | 7.95 | 7.95 | 6.77 | 93.9 | 33.9 | 32.3 | 24.2 | 111 | 25.3 | 30.7 | 28.5 | 102 | 35.9 | 36.8 | 19.4 | 105 | 36.5 | 28.5 | viability, T/C [1]: 122%; viability, T/C [2]: 102%; viability, T/C [7]: 119%; viability, T/C [8]: 109%; viability, T/C [13]: 113%; viability, T/C [14]: 104%; viability, T/C [19]: 123%; viability, T/C [20]: 136%; viability, T/C [24]: 20.7%; viability, T/C [25]: 110%; viability, T/C [26]: 118%; viability, T/C [27]: 98.7%; viability, T/C [28]: 25%; viability, T/C [29]: 25.5%; viability, T/C [30]: 14.5%
CC(C)CC(NC(=O)CNC(=O)c1cc(Cl)ccc1Cl)B1OC(=O)CC(CC(=O)O)(C(=O)O)O1 (stereo not given) + NC1CC1c1ccc(-c2cccc(O)c2)cc1 | 83.1 | > 100 | 84.5 | > 100 | 49.9 | 97.8 | 80.7 | 74.3 | 45 | 94.5 | 77.6 | 76.5 | 52.8 | 104 | 80 | 66.1 | 46.6 | 102 | 68.2 | 60.8 | viability, T/C [1]: 105%; viability, T/C [2]: 114%; viability, T/C [7]: 102%; viability, T/C [8]: 102%; viability, T/C [13]: 103%; viability, T/C [14]: 106%; viability, T/C [19]: 90%; viability, T/C [20]: 105%; viability, T/C [24]: 45.2%; viability, T/C [25]: 95.8%; viability, T/C [26]: 108%; viability, T/C [27]: 101%; viability, T/C [28]: 80.1%; viability, T/C [29]: 59.7%; viability, T/C [30]: 37.7%
COc1cc(Nc2ncc3c(n2)-c2ccc(Cl)cc2C(c2c(F)cccc2OC)=NC3)ccc1C(=O)O + NC1CC1c1ccc(-c2cccc(O)c2)cc1 | > 1000 | > 1000 | > 1000 | > 1000 | > 1000 | 103 | 105 | 82.8 | 72.2 | 97.7 | 100 | 85.4 | 90 | 111 | 91.4 | 84.3 | 74.3 | 92.9 | 85.7 | 89.5 | viability, T/C (second compound 0.1 µM, first compound 0.316 µM): 82.4%; viability, T/C (second compound 0.1 µM, first compound 1 µM): 81.5%; viability, T/C (second compound 0.316 µM, first compound 0.316 µM): 81.2%; viability, T/C (second compound 0.316 µM, first compound 1 µM): 80.5%; viability, T/C (second compound 1 µM, first compound 0.316 µM): 74%; viability, T/C (second compound 1 µM, first compound 1 µM): 82.5%; viability, T/C [24]: 77.6%; viability, T/C (second compound 3.16 µM, first compound 0.316 µM): 72.8%; viability, T/C (second compound 3.16 µM, first compound 1 µM): 79%; viability, T/C [27]: 100%; viability, T/C [28]: 102%; viability, T/C [29]: 85.3%; viability, T/C [30]: 83.5%; viability, T/C (second compound 10 µM, first compound 0.316 µM): 82.9%; viability, T/C (second compound 10 µM, first compound 1 µM): 78.4%
